Measurements from ChEMBL document CHEMBL4879554, “Data for DCP probe GNE-2256” (2021).

Columns and labels:
[1] = target: Tyrosine-protein kinase JAK1 (Homo sapiens, UniProt P23458); assay: NanoBRET assay (JAK1, SGC Frankfurt)
[2] = target: Receptor-type tyrosine-protein kinase FLT3 (Homo sapiens, UniProt P36888); assay: NanoBRET assay (FLT3, SGC Frankfurt)
[3] = target: Tyrosine-protein kinase JAK2 (Homo sapiens, UniProt O60674); assay: NanoBRET assay (JAK2, SGC Frankfurt)
Chain of Tyrosine-protein kinase JAK2 (O60674 whole entry): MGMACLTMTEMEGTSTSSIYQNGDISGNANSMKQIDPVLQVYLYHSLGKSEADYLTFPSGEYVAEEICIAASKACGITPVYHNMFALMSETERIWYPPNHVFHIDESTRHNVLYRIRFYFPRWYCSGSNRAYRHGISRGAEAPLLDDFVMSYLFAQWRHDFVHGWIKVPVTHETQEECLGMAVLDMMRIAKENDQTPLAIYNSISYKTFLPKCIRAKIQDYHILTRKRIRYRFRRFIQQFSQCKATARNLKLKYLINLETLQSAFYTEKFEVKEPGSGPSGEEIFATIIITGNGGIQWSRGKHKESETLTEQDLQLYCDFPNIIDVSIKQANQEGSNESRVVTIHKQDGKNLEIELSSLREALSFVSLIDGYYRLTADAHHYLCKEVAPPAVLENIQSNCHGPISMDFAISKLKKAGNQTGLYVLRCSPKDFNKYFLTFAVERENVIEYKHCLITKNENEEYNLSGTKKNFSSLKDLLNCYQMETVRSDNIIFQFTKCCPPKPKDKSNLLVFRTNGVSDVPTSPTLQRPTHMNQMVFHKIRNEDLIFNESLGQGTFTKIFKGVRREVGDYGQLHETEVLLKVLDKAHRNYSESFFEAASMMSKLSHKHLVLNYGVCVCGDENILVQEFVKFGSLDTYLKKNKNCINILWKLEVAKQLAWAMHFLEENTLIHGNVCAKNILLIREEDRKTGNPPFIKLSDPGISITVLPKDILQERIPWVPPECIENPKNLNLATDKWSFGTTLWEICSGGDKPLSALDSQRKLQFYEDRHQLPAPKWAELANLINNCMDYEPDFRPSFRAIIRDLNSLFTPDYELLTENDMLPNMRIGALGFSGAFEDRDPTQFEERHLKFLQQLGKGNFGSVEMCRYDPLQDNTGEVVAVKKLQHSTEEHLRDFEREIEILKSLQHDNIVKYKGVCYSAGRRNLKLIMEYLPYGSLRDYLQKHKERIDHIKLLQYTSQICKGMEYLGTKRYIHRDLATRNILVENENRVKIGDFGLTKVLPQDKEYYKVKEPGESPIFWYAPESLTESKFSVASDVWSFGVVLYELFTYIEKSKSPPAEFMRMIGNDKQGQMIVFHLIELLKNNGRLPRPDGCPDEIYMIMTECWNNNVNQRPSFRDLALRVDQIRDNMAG

Chain of Receptor-type tyrosine-protein kinase FLT3 (P36888 whole entry): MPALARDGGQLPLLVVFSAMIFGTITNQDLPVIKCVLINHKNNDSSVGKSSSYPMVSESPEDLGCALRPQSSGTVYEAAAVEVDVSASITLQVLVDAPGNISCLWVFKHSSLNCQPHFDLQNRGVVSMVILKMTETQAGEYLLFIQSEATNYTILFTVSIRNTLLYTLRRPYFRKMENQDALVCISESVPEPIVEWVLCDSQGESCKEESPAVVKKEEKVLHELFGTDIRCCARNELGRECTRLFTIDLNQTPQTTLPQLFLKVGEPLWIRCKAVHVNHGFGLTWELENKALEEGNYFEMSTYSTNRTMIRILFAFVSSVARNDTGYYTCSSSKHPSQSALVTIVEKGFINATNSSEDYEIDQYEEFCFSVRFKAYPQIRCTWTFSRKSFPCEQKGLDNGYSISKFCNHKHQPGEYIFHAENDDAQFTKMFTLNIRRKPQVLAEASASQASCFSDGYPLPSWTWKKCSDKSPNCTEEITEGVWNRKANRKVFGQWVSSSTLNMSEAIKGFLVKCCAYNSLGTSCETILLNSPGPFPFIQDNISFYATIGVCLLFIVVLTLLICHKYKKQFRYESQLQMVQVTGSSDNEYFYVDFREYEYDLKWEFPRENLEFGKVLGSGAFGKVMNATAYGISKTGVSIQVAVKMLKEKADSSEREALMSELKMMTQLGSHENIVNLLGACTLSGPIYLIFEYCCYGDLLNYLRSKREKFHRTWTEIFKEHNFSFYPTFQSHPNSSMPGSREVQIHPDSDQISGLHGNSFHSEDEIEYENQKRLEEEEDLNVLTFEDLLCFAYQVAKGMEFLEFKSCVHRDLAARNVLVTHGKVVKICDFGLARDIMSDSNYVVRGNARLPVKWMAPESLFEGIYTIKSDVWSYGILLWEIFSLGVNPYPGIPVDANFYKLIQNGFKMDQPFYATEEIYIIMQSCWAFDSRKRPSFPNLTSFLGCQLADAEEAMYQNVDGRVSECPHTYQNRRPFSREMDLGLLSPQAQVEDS
Chain of Tyrosine-protein kinase JAK1 (P23458 whole entry): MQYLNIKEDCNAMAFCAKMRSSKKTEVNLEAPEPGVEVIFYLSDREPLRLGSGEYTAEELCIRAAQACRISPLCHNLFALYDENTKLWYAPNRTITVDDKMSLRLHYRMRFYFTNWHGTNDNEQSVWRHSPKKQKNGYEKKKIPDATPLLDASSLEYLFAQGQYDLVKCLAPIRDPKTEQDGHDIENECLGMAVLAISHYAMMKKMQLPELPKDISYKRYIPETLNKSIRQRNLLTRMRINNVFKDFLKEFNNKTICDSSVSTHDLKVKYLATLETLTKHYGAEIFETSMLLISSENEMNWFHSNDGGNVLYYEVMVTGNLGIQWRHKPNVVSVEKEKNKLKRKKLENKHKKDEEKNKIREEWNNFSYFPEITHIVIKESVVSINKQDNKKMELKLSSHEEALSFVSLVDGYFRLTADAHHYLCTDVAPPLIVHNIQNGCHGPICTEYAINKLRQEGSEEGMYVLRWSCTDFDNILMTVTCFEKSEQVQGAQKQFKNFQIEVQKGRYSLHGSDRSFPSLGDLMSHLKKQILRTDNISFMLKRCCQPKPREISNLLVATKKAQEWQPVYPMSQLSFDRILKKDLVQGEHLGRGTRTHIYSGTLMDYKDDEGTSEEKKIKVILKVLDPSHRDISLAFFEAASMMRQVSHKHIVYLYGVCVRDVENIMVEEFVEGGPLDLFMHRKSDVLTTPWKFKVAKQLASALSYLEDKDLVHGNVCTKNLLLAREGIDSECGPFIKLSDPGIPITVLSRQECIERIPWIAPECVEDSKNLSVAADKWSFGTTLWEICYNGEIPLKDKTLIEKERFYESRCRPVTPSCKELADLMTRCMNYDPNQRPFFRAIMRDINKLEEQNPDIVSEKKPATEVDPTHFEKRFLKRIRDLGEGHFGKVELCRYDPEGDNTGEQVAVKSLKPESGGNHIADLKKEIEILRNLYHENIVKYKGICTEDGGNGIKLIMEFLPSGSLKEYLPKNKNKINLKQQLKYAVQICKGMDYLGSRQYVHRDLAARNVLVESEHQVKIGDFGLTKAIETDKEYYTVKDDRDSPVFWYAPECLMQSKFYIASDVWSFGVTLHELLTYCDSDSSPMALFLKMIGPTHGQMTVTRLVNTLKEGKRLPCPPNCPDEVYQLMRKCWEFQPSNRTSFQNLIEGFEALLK

EC50 [1]: > 50 µM (not active)
EC50 [2]: 3.6 µM (not active)
EC50 [3]: > 50 µM (not active)
SMILES: CN(C(=O)c1cnn2cccnc12)c1cc2c(cc1N1CCOCC1)C(=O)N(C[C@@H](F)C(C)(C)O)C2
